Experiments:
Type in all cases: cell-based, human
[1] = tested on: Circulating Tumour Cells (CTCs) from a patient with rectal cancer (anorectal carcinoma with secondary lung cancer); assay: Drug response score assay on CTCs (with CD45+ cells for immunotherapy) from blood, Example 3
Protocol: (§1) CD45^+ cells and circulating tumour cells (CTCs) were isolated from a blood sample provided by each subject.
(§2) CD45 separation was performed by adding human CD45 microbeads (50 μl/ml blood), incubating for 15 minutes at 4° C. and then processing using an AutoMACS machine. This separates the blood sample into CD45^+ and CD45^−cells in 2 separate falcons. The falcon tubes are then centrifuged at 1200 rpm for 5 minutes.
(§3) The supernatant was removed from the CD45^+falcon tube, and the cells resuspended in DMEM with 2 μl Cell Tox, 2 μl MT and 2 μl MT. 20 μl of the resuspended CD45^+ cells was then plated in each well which will contain an immunotherapy treatment.
(§4) The supernatant was removed from the CD45^−falcon tube, and the CD45^−cells contacted with 100 μl of FcR block and 100 μl of CD326 (EpCAM) MicroBeads, followed by incubation at […] 4° C. for 30 minutes. The CD45^−cells were then processed using an AutoMACS machine to separate the EpCAM positive and negative cells into 2 separate falcon tubes. The EpCAM-cells were discarded. The supernatant was removed from the EpCAM^+ cells, and the cells resuspended in DMEM with 2 μl Cell Tox, 2 μl MT and 2 μl MT. 20 μl of the resuspended pellet was then added to all sample wells excluding a blank. After all wells are added to, a cell count was conducted on the […] to determine the number of circulating tumour cells (CTCs).
(§5) The different cell types were each divided equally into populations, depending on the number of drugs/concentrations to be tested and plated on a cell-culture plate pre-coated with a scaffold of polycaprolactone (PCL) electrospun fibres and incubated at 37° C., 5% CO2, for 5 to (typically 10) minutes to facilitate cell attachment. After attachment, an initial imaging step was carried out using the RealTime-Glo™ MT assay from Promega (Catalogue No. G9711)) and the CellTox™ Green Cytotoxicity Assay (Promega, Catalogue No. G8741), carried out according to manufacturer's instructions. Following this initial imagining, the immunotherapeutic and/or chemotherapeutic agents were added to the cell populations as indicated below. After 10 minutes, the imagining step was repeated. The cell populations were then incubated at 37° C., 5% CO2 for 48 hours. The imaging step was then repeated. The cell populations were then re-dosed with the same immunotherapeutic and/or chemotherapeutic agents as indicated below, and incubated at 37° C., 5% CO2 for a further 48 hours. After this second 48 hour incubation, the imagining step was repeated for a final time.
(§6) At the end of this culture period, dose response scores were calculated using a normalized drug response metric as described in Gupta et al. (Communications Biology volume 3, Article number: 42 (2020), https://doi.org/10.1038/s42003-020-0765-z). The start readout for a given immunotherapeutic or chemotherapeutic agent at a given concentration was the to readout for said immunotherapeutic or chemotherapeutic agent at a specified concentration. The end readout for a given immunotherapeutic or chemotherapeutic agent at a given concentration was the final timepoint reading (t96h) for said immunotherapeutic or chemotherapeutic agent at a specified concentration.
(§7) The positive control start readout for a given drug/concentration was the to readout for the corresponding drug at a specified concentration. The positive control end readout for the corresponding drug at a specified concentration was the final timepoint reading (t96h) for the corresponding blank well.
(§8) The negative control start and end readouts for a given immunotherapeutic or chemotherapeutic agent at a given concentration were the to and final timepoint reading (t96h) respectively for blank cell or blank immuno cell well respectively.
(§9) The sensitivity or resistance of a subject's cancer to a given immunotherapeutic or chemotherapeutic agent was determined based on the calculated drug response score as shown in Table 2. […]

[2] = tested on: Circulating Tumour Cells (CTCs) from a patient with lung cancer (adenocarcinoma); assay: Drug response score assay on CTCs (with CD45+ cells for immunotherapy) from blood, Example 5; settings: lung cancer CTCs; for Drug sensitivity as calculated by the assay (interpretation of Drug Response Scores): Table 17
Protocol: as §1, §2, §3, §4, §5, §6, §7, §8, §9

[3] = tested on: Circulating Tumour Cells (CTCs) from a patient with head and neck cancer (squamous cell carcinoma); assay: Drug response score assay on CTCs from blood, Example 6
Protocol: as §1, §2, §4, §5, §6, §7, §8
The sensitivity or resistance of a subject's cancer to a given immunotherapeutic or chemotherapeutic agent was determined based on the calculated drug response score as shown in Table 2.
Blood samples from a patient with head and neck cancer (squamous cell carcinoma) were received on 11 Mar. 2022 and tested using a 7 drug panel.

[4] = tested on: Circulating tumour cells (CTCs) from a patient with GI cancer (Cholangio Carcinoma, stage 4); assay: Drug response score assay on blood sample, Example 9
Protocol: as §1, §2, §3, §4, §5, §6, §7, §8, §9

[5] = tested on: Cancer Cells from tissue sample (CSCs, tumour marker+ cells) of a patient with GI cancer (Cholangio Carcinoma, stage 4); assay: Drug response score assay on tissue sample, Example 9
Protocol: (§10) Where a tissue sample was provided by each subject, cancer stem cells (CSCs, CD133^+), were isolated from said sample. Tumour marker cells were further isolated from each tissue sample. The remaining cells were designated tumour marker^+ cells.
(§11) First, disaggregation of the tissue samples was carried out. Disaggregation was dependent on the size of the tissue sample and the method of retrieval: • EBUS (Endobronchial Ultrasound Scan and Biopsy)—very small fragments of tissue in solution-spun at 1200 rpm for 5 minutes to collect tissue pellet • Bronchoscopy-larger fragments with larger amount of blood vessels • Broncho-lavage-similar to EBUS, spun at 1200 rpm for 5 minutes to collet tissue pellet
(§12) Once a pellet of tissue obtained, DMEM added to the tissue pellet and the material forced through a […] Smart strainer. Once a cell suspension was achieved, this was spun at 1200 rpm for 5 minutes and the supernatant removed. The cells were then resuspended to a volume of 60 μl.
(§13) 20 μl of FcR block and 20 μl of CD133 microbeads were added to the resuspended cells, followed by incubation for 15 minutes at 4° C. The cells were then processed using an AutoMACS machine. This separates the […] into CD133^+ and CD133^− cells in 2 separate falcons. The falcon tubes are then centrifuged at 1200 rpm for 5 minutes.
(§14) The supernatant was removed from the CD133+falcon tube, and the cells resuspended in DMEM with 2 μl Cell Tox, 2 μl MT and 2 μl MT. 20 μl of the resuspended […] was then plated in each well which will contain an immunotherapy treatment.
(§15) The supernatant was removed from the CD133^− falcon tube, and the CD133^− cells contacted with 40 μl of a tumour separation microbeads cocktail containing microbeads bound to anti-CD31, anti-CD45, anti-Glycophorin-A (Gly-A) and an anti-fibroblast antibody.
(§16) This cocktail is used to separate out tumour marker cells using MACS, by separating out CD31^+, CD45^+ and Gly-A^+ cells. In addition, anti-fibroblast antibody-labelled beads are also used. The cocktail is added to the CD133^− falcon tube, followed by incubation for 15 minutes at 4° C. MACS is carried out using an AutoMACS machine. This cells which are not bound by the CD31, CD45, Gly-A and anti-fibroblast antibody beads are the tumour marker^+ cells.
as §5
as §6, with “The end readout for a given immunotherapeutic or chemotherapeutic agent at a given concentration was the final timepoint reading (t96h) for said immunotherapeutic or chemotherapeutic agent at a specified concentration.” left out

[6] = tested on: cancer cells derived from the tissue sample of a patient with osteosarcoma; assay: Drug response score assay on tissue sample, Example 10; settings: osteosarcoma tissue sample
Protocol: as §10, §11, §12, §13, §14, §15, §16, §5
as §6, with “The end readout for a given immunotherapeutic or chemotherapeutic agent at a given concentration was the final timepoint reading (t96h) for said immunotherapeutic or chemotherapeutic agent at a specified concentration.” left out

CNC(=O)c1cc(Oc2ccc(NC(=O)Nc3ccc(Cl)c(C(F)(F)F)c3)c(F)c2)ccn1 [Regorafinib]
Drug response score, conc. 1 ([1]; conc. 1: Pembro 20 μg/ml, Nivo 20 μg/ml (CTCs + CD45+ cells), Lenva 50 ng/ml, Regor 60 μg/ml (CTCs), t96h): 0.9681 | Drug response score, conc. 2 ([1]; conc. 2: Pembro 40 μg/ml, Nivo 40 μg/ml (CTCs + CD45+ cells), Lenva 100 ng/ml, Regor 80 μg/ml (CTCs), t96h): 0.9212 | Drug response score, conc. 3 ([1]; conc. 3: Pembro 100 μg/ml, Nivo 80 μg/ml (CTCs + CD45+ cells), Lenva 200 ng/ml, Regor 120 μg/ml (CTCs), t96h): 0.7424 | Drug response score, conc. 4 ([1]; conc. 4: Pembro 160 μg/ml, Nivo 160 μg/ml (CTCs + CD45+ cells), Lenva 400 ng/ml, Regor 160 μg/ml (CTCs), t96h): −0.7024 | effectiveness on Circulating Tumour Cells under laboratory conditions ([1]; rectal cancer CTCs): Sensitive S+ | Drug sensitivity as calculated by the assay (interpretation of Drug Response Scores) ([1]; rectal cancer CTCs, Table 11): Sensitive (S+)

C#Cc1cccc(Nc2ncnc3cc(OCCOC)c(OCCOC)cc23)c1 [Erlotinib]
effectiveness on Circulating Tumour Cells (CTCs) under laboratory conditions [2]: relatively less effective compared rest of the agents | Drug sensitivity as calculated by the assay (interpretation of Drug Response Scores) [2]: S+

COc1cc2ncnc(Nc3ccc(F)c(Cl)c3)c2cc1OCCCN1CCOCC1 [Gefitinib]
effectiveness on Circulating Tumour Cells (CTCs) under laboratory conditions [2]: relatively less effective compared rest of the agents | Drug sensitivity as calculated by the assay (interpretation of Drug Response Scores) [2]: S+

CN(Cc1cnc2nc(N)nc(N)c2n1)c1ccc(C(=O)N[C@@H](CCC(=O)O)C(=O)O)cc1 [Methotrexate]
Drug response score, conc. 1 ([3]; conc. 1: Ifos 0.125 μg/ml, Gemcit 2 μg/ml, Doxo 10 ng/ml, Etop 1 μg/ml, Metho 0.5 μg/ml, Capecit 200 μg/ml, Vinor 20 μg/ml, CTCs, t96h): 0.9711 | Drug response score, conc. 2 ([3]; conc. 2: Ifos 0.25 μg/ml, Gemcit 10 μg/ml, Doxo 30 ng/ml, Etop 4 μg/ml, Metho 1 μg/ml, Capecit 300 μg/ml, Vinor 40 μg/ml, CTCs, t96h): 0.9988 | Drug response score, conc. 3 ([3]; conc. 3: Ifos 5 μg/ml, Gemcit 20 μg/ml, Doxo 90 ng/ml, Etop 20 μg/ml, Metho 2 μg/ml, Capecit 400 μg/ml, Vinor 80 μg/ml, CTCs, t96h): 1.0559 | Drug response score, conc. 4 ([3]; conc. 4: Ifos 10 μg/ml, Gemcit 40 μg/ml, Doxo 270 ng/ml, Etop 100 μg/ml, Metho 4 μg/ml, Capecit 600 μg/ml, Vinor 200 μg/ml, CTCs, t96h): 0.7375 | effectiveness on Circulating Tumour Cells under laboratory conditions ([3]; head and neck cancer CTCs): not effective | Drug sensitivity as calculated by the assay (interpretation of Drug Response Scores) ([3]; head and neck cancer CTCs, Table 20): Resistant | Drug sensitivity as calculated by the assay (interpretation of Drug Response Scores) [2]: S++

CCc1c2c(nc3ccc(OC(=O)N4CCC(N5CCCCC5)CC4)cc13)-c1cc3c(c(=O)n1C2)COC(=O)[C@]3(O)CC [Irinotecan]
effectiveness on Circulating Tumour Cells under laboratory conditions ([4]; GI cancer (Cholangio Carcinoma) blood sample): S+ | Drug response score from blood sample, conc. 1 ([4]; conc. 1 of each drug as in Table 27, blood sample, t96h): 0.1974 | Drug response score from blood sample, conc. 2 ([4]; conc. 2 of each drug as in Table 27, blood sample, t96h): 0.3469 | Drug response score from blood sample, conc. 3 ([4]; conc. 3 of each drug as in Table 27, blood sample, t96h): 0.6197 | Drug response score from blood sample, conc. 4 ([4]; conc. 4 of each drug as in Table 27, blood sample, t96h): 0.5913 | Drug sensitivity as calculated by the assay, Blood ([4]; interpretation based on Drug Response Scores, blood sample): S+ | effectiveness on Cancer Cells from tissue sample under laboratory conditions ([5]; GI cancer (Cholangio Carcinoma) tissue sample): S+ | Drug sensitivity as calculated by the assay, Tissue ([5]; interpretation based on Drug Response Scores, tissue sample): S+ | Drug response score, conc. 1 ([5]; tissue sample, conc. 1 per Table 27B: Pem 20, Niv 20, Atez 100, Pacli 0.05, Irino 5, Beva 1 μg/ml, Len 50, 5-FU 250 ng/ml): 0.887 | Drug response score, conc. 2 ([5]; tissue sample, conc. 2 per Table 27B: Pem 40, Niv 40, Atez 200, Pacli 0.1, Irino 10, Beva 2 μg/ml, Len 100, 5-FU 500 ng/ml): 0.9135 | Drug response score, conc. 3 ([5]; tissue sample, conc. 3 per Table 27B: Pem 100, Niv 80, Atez 400, Pacli 0.2, Irino 25, Beva 4 μg/ml, Len 200, 5-FU 1000 ng/ml): 0.8742 | Drug response score, conc. 4 ([5]; tissue sample, conc. 4 per Table 27B: Pem 160, Niv 160, Atez 800, Pacli 1, Irino 50, Beva 8 μg/ml, Len 400, 5-FU 2000 ng/ml): 0.8612 | effectiveness on the cancer cells derived from the tissue sample under laboratory conditions [6]: show effectiveness | Drug sensitivity as calculated by the assay (interpretation of Drug Response Scores) ([6]; Table 33): Sensitive (S++)

C[C@@H](Oc1cc(-c2cnn(C3CCNCC3)c2)cnc1N)c1c(Cl)ccc(F)c1Cl [Crizotinib]
effectiveness on Circulating Tumour Cells (CTCs) under laboratory conditions [2]: marginally more effective than other agents | Drug sensitivity as calculated by the assay (interpretation of Drug Response Scores) [2]: S++

Reference: patent US20250290915A1, “METHOD FOR PREDICTING RESPONSIVENESS TO THERAPY” (CANCERTAIN LIMITED, priority 2022, published 2025)
